Data on 13 molecules can be found in patent US11161819B2, “Substituted tetrahydroisoquinoline compounds useful as GPR120 agonists” (Merck Sharp & Dohme Corp., priority 2016, dated 2021).

The target of this test is T1, human GPR120 (Homo sapiens, UniProt Q5NUL3).
T1 construct: expressed in transfected cells
T1 sequence (Q5NUL3 1-361): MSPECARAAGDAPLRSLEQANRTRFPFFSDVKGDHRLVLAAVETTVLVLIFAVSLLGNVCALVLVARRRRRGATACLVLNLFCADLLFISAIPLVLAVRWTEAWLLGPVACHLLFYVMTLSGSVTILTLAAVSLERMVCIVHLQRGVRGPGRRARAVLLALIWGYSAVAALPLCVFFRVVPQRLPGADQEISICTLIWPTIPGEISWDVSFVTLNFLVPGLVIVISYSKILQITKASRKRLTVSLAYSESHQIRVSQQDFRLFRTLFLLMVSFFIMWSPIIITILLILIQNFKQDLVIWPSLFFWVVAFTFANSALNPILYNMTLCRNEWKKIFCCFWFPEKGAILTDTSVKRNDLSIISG
The test can be described thus: Human GPR120 IP1 Assay (inositol phosphate turnover, CisBio IP-One kit). The following applies: IP1 accumulation in CHO-K1 cells stably expressing the short form of human GPR120; 60 min compound incubation; 4-parameter fit; read-out: hGPR120 EC50. The format is cell-based. An excerpt:
Human GPR120 IP1 Assay Principle
The binding of small molecule agonists to the G-protein-coupled receptor GPR120 activates phospholipase C, and leads to the generation of inositol 1,4,5-trisphosphate (InsP3 or IP3). IP3 is subsequently de-phosphorylated to IP1, which accumulates in cells and is stable in the presence of lithium chloride.
In the present method, agonist-induced activation of the human GPR120 receptor was monitored by measuring the accumulation of IP1 in CHO-K1 cells that were stably expressing the short form of human GPR120 (Accession #NM_001195755). Following agonist addition, GPR120 activation and subsequent accumulation of IP1 was measured using a homogeneous Time Resolved Fluorescence-based ELISA commercially available from CisBio (IP-one ELISA Kit). The IP-One ELISA was a competitive immunoassay which uses IP1 labeled with […] and a terbium cryptate-labeled anti-IP1 monoclonal antibody. […] The signal loss was then back calculated to IP1 concentration using an IP1 standard curve. Determination of IP1 concentration was a direct measure of GPR120 activation and was used to determine compound potency (EC50).
Generation of GPR120-Expressing Cells:
Human GPR120 stable cell-lines were generated in CHO cells. The expression plasmids were transfected using lipofectamine (Life Technologies) following manufacturer's instructions. Stable cell-lines were generated following drug selection and single cell cloning.
Inositol Phosphate Turnover (IP1) Assay:
The assay was performed in 384-well format. CHO cells stably expressing human GPR120 were plated at […] per well in growth medium (DMEM/F12, 10% fetal calf serum). Cell plates were then incubated 16 hours at 37 degrees in a 5% CO2 incubator. Measurement of Inositol Phosphate Turnover (IP1) was performed using the CisBio IP-One kit (Part number 62IPAPEB). After the 16 hour incubation, the growth media was removed by centrifugation using the BlueWasher (AusWasher GUI Ver. v1.0.1.8) Protocol #21-“Light Dry” and 10 ul of stimulation buffer (prepared as described in the kit) was added to each well. In a separate plate, compounds were diluted in DMSO (200-fold over the final concentration in the assay well) and 50 nl was acoustically transferred to the appropriate well in the assay cell plate. The plates were then incubated for 60 minutes at 37 degrees in a 5% CO2 incubator. 10 ul of detection buffer (also prepared as described in the IP-One kit) was added to each well and the plates were incubated at room temperature for 60 minutes in the dark. The plates were then read in a Perkin Elmer EnVision or equivalent reader able to measure FRET. Fluorescent ratio of emission at 665 and 620 nm was then converted to the IP1 concentration by back calculating from an IP1 standard curve prepared at the time of the assay. The data was normalized to % activity using a reference compound, and the EC50 values were determined using a standard 4-parameter fit.
With `N#Cc1cc(OC2CCC2)cc(N2CCc3cc(CCC(=O)O)ccc3C2)c1F` [Example 12, 3-{2-[3-cyano-5-(cyclobutyloxy)-2-fluorophenyl]-1,2,3,4-tetra-hydroisoquinolin-6-yl}propanoic acid], the concentration giving a half-maximal response (EC50) was determined as 24 nM.
As for `O=C(O)[C@H]1C[C@@H]1c1ccc2c(c1)CCN(Cc1cc(OC(F)(F)F)ccc1F)C2` [Example 90, (1S,2S)-2-{2-[2-fluoro-5-(trifluoro-methoxy)benzyl]-1,2,3,4-tetra hydroisoquinolin-6-yl}cyclo-propane carboxylic acid], the figure is 250 nM; as for `O=C(O)C1CC1c1ccc2c(c1)CCN(c1cc(OC(F)(F)F)cc(Cl)c1F)C2` (stereo not shown) [Example 105, 2-{2-[3-chloro-2-fluoro-5-(trifluoro-methoxy)phenyl]-1,2,3,4-tetra-hydroisoquinolin-6-yl}cyclo-propane-carboxylic acid], 6610 nM.
As for `O=C(O)CCc1ccc2c(c1F)CCN(c1cc(OC(F)(F)F)ccc1F)C2` [Example 80, 3-{5-fluoro-2-[2-fluoro-5-(trifluoromethoxy)phenyl]-1,2,3,4-tetrahydro-isoquinolin-6-yl}propanoic acid], the figure is 3120 nM.
With `CC1c2ccc(CCC(=O)O)cc2CCN1c1cc(OC2CCC2)cc(F)c1F` (stereo not shown) [Example 32, 3-{2-[5-(cyclobutyloxy)-2,3-difluorophenyl]-1-methyl-1,2,3,4-tetrahydroisoquinolin-6-yl}-propanoic acid], the concentration giving a half-maximal response (EC50) was 233 nM.
As for `O=C(O)CCc1ccc2c(c1)CCN(c1cc3c(C(F)(F)F)noc3cc1F)C2` [Example 29, 3-{2-[6-fluoro-3-(trifluoromethyl)-1,2-benzisoxazol-5-yl]-1,2,3,4-tetrahydroisoquinolin-6-yl}-propanoic acid], the figure is 171 nM; as for `Cc1ccc(-n2nc(C)c(C#N)c2N2CCc3cc(OCCCO)ccc3C2)cc1` [Example 144, 5-[6-(3-hydroxypropoxy)-3,4-dihydroisoquinolin-2(1H)-yl]-3-methyl-1-(4-methylphenyl)-1H-pyrazole-4-carbonitrile], 4300 nM; as for “3-{2-[2-cyano-5-(cyclobutyloxy) phenyl]-1,2,3,4-tetrahydroiso- quinolin-6-yl}propanoic acid [Example 46]”, 5390 nM.
`CC(Cc1ccc2c(c1F)CCN(c1cc(OC3CCC3)cc(F)c1C#N)C2)C(=O)O` (stereo not shown) [Example 79, 3-(2-(2-cyano-5-cyclobutyloxy-3-fluorophenyl)-5-fluoro-1,2,3,4-tetra hydroisoquinolin-6-yl)-2-methyl-propanoic acid]: the EC50 is 471 nM.
With `N#Cc1c(F)cc(OC2CCC2)cc1N1CCc2c(ccc(CCC(=O)O)c2Cl)C1` [Example 153, 3-{5-chloro-2-[2-cyano-5-(cyclobutyloxy)-3-fluorophenyl]-1,2,3,4-tetrahydroisoquinolin-6-yl}-propanoic acid], the half-maximal effective concentration (EC50) was determined as 87 nM.
For `C[C@H]1C[C@H](Oc2cc(F)c(F)c(N3CCc4c(ccc([C@H]5C[C@@H]5C(=O)O)c4F)C3)c2)C1` [Example 122, (1S,2S)-2-(2-{2,3-difluoro-5-[(trans-3-methylcyclobutyl)oxy]phenyl}-5-fluoro-1,2,3,4-tetrahydro-isoquinolin-6-yl)cyclopropane-carboxylic acid] the value was 121 nM; for `COc1cc(OC2CCC2)nc(N2CCc3c(ccc(CCC(=O)O)c3F)C2)c1F` [Example 148, 3-(2-(6-cyclobutoxy-3-fluoro-4-methoxypyridin-2-yl)-5-fluoro-1,2,3,4-tetra-hydroisoquinolin-6-yl)propanoic acid], 9 nM; for `O=C(O)CCc1ccc2c(c1)CCN(c1cc(Cl)c(C(F)(F)F)c(Cl)c1)C2` [Example 40, 3-{2-[3,5-dichloro-4-(trifluoro-methyl)phenyl]-1,2,3,4-tetrahydro-isoquinolin-6-yl}propanoic acid], 463 nM.
